Tests used:
Experiment in all cases: selective drug sensitivity score (sDSS, relative to normal bone marrow) (sDSS (score)); higher = more potent and effective on the cell line relative to normal bone marrow cells
Settings in all cases: 72 h
[1] = system: ALL-SIL
[2] = system: CCRF-HSB2
[3] = system: COG-LL-402h
[4] = system: DND-41
[5] = system: HPB-ALL
[6] = system: JURKAT
[7] = system: KARPAS-45
[8] = system: KASUMI-10
[9] = system: KASUMI-2
[10] = system: LC4-1
[11] = system: MHH-CALL-2
[12] = system: MN-60
[13] = system: MOLT-4
[14] = system: NALL-1
[15] = system: P30-OHKUBO
[16] = system: PF-382
[17] = system: RCH-ACV
[18] = system: RPMI-8402
[19] = system: SEM cells
[20] = system: SUP-B15
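Also: ALL cell lines in 384-well plates, five doses spanning 10,000-fold, each plate scaled between vehicle and 100 µmol/L benzalkonium chloride controls, sDSS an adapted area-under-curve metric.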

Compound	selective drug sensitivity score [1]	selective drug sensitivity score [2]	selective drug sensitivity score [3]	selective drug sensitivity score [4]	selective drug sensitivity score [5]	selective drug sensitivity score [6]	selective drug sensitivity score [7]	selective drug sensitivity score [8]	selective drug sensitivity score [9]	selective drug sensitivity score [10]	selective drug sensitivity score [11]	selective drug sensitivity score [12]	selective drug sensitivity score [13]	selective drug sensitivity score [14]	selective drug sensitivity score [15]	selective drug sensitivity score [16]	selective drug sensitivity score [17]	selective drug sensitivity score [18]	selective drug sensitivity score [19]	selective drug sensitivity score [20]
Nc1nc2[nH]cnc2c(=S)[nH]1 [Thioguanine] (top concentration 10000 nM)	12.8	14.7	6.34	13.1	11.2	12.4	15	5.24	2.54	12.4	11.9	10	14.2	8.64	11.6	12	14.3	14.9	13	19.2
CC#CC(=O)N1CC[C@@H](n2c(=O)n(-c3ccc(Oc4ccccc4)cc3)c3c(N)ncnc32)C1 [Tirabrutinib] (top concentration 1000 nM)	0	0.8	5.2	2.3	0	0	2.5	0	2.9	0.7	0	0	0	3.7	0	0	11	0	1.1	14.7
CC(C)C[C@@H](C(=O)N[C@H](C(=O)OC1CCCC1)c1ccccc1)[C@H](O)C(=O)NO [Tosedostat] (top concentration 10000 nM)	1.06	3.16	-0.74	5.16	-4.94	2.16	8.66	7.06	-5.44	2.26	5.76	-2.44	-0.54	0.86	4.96	5.66	2.16	2.86	0.86	11
CS(=O)(=O)c1ccc(-c2cnc(N)c(C(=O)Nc3ccccc3)n2)cc1 [VE-821] (top concentration 10000 nM)	4.94	4.44	0.34	-0.66	5.04	1.64	1.54	2.54	-0.66	4.64	7.84	-0.66	3.94	-0.66	-0.16	-0.56	7.94	5.54	2.44	6.94
CNC(=O)c1ccccc1Nc1cc(Nc2ccc(N3CCOCC3)cc2OC)ncc1C(F)(F)F [VS-4718] (top concentration 10000 nM)	4.3	3.5	-4.5	-0.9	1.7	1.1	7.1	11.2	-5	-3	8.9	-3.4	1.9	8.7	0.4	-0.3	0.8	8.8	7.9	-3
Cc1cccc(-c2[nH]c(CNc3ccccc3F)nc2-c2ccc3ncnn3c2)n1 [Vactosertib (TEW-7197)] (top concentration 2500 nM)	-0.5	5.1	1.1	3	-0.5	0	-0.5	-0.5	-0.5	-0.1	-0.3	-0.1	2.3	-0.4	-0.4	-0.5	-0.5	-0.5	4.5	9
O=C(/C=C\n1cnc(-c2cc(C(F)(F)F)cc(C(F)(F)F)c2)n1)NNc1ccccn1 [Verdinexor] (top concentration 1000 nM)	3.74	9.84	9.34	11.6	1.84	8.74	7.54	1.54	12.9	1.94	1.84	2.24	9.74	0.64	4.34	6.54	9.04	8.34	0.34	11.2
CC[C@@H]1C(=O)N(C)c2cnc(Nc3ccc(C(=O)N[C@H]4CC[C@H](N5CCN(CC6CC6)CC5)CC4)cc3OC)nc2N1C(C)C [Volasertib] (top concentration 1000 nM)	12.7	12.4	11	11.2	15.5	11.7	19	8	5.7	13.4	10.6	0.4	11.3	12.3	13.1	13.6	13.9	20.8	21.4	19.2
O=C(CCCCCCC(=O)Nc1ccccc1)NO [Vorinostat] (top concentration 10000 nM)	7.5	4.8	10.2	2.2	6	3.6	9.9	4.6	17.6	8.2	8.7	0.8	5.8	-3.5	10	4.1	16.5	8.2	11.3	11.9

Reference: the supplement of paper PMC8967900
